Test results: patent US4894389A, “Novel aminoalkyl-substituted heterocyclic sulfur compounds” (Merrell Dow Pharmaceuticals Inc., priority 1987, dated 1990)

How the values were obtained:
[1] = molecular target: T1, dopamine-β-hydroxylase (DBH) (Bos taurus, UniProt P15101); assay: DBH inhibition kinetics: conversion of tyramine to octopamine, HPLC with fluorometric quantitation; format: biochemical; settings: read-out: inhibition constant (ki)
T1 sequence (P15101 1-610): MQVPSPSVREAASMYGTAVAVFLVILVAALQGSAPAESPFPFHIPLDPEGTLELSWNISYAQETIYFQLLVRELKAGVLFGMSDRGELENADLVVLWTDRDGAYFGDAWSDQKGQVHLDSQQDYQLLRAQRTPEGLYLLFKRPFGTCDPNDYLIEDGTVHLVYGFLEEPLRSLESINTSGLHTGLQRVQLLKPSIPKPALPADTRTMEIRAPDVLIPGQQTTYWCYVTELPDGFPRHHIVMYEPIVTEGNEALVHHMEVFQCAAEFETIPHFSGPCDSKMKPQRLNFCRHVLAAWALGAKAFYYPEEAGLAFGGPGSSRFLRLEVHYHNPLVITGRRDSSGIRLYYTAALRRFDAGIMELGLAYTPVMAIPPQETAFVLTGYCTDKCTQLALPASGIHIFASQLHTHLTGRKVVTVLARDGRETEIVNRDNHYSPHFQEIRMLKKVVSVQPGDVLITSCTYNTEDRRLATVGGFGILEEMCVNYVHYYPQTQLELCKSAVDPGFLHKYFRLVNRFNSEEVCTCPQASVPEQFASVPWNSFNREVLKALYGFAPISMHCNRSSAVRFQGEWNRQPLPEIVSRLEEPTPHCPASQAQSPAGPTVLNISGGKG
Excerpt: The DBH inhibitory properties of the compounds of this invention can also readily be determined […] by standard and well known procedures for assaying the conversion of tyramine to octopamine in the presence of DBH, such as the procedure set forth by Feilchenfeld, N. B., Richter, H. W. and Waddell, W. H. in "Time-Resolved Assay of Dopamine Beta Hydroxylase Activity Utilizing High-Pressure Liquid Chromatography", Analyt. Biochem., 122, 124-128 (1982). Determination of the kinetics of DBH inhibition is exemplified by a procedure where the enzyme-assisted conversion of tyramine to octopamine is determined by incubating varying concentrations of test compound with constant concentrations of substrate, enzyme (DBH), molecular oxygen, an electron donor such as ascorbate and the necessary cofactors for the enzyme at optimal temperature and pH. After incubation, the product is separated out by high-performance liquid chromatography and quantitated fluorometrically, from which an inhibition constant (ki) can readily be calculated.

[2] = system: spontaneously hypertensive rats; assay: Antihypertensive activity in vivo: continuous recording of arterial blood pressure in conscious spontaneously hypertensive rats; settings: ip
Protocol: For instance, test compounds are administered intraperitoneally (ip) to unanesthetized, spontaneously hypertensive rats and the arterial blood pressure is monitored continuously.

[3] = molecular target: T1, dopamine-β-hydroxylase (DBH); assay: Time-dependent DBH inhibitory activity in vitro (tyramine substrate, oxygen uptake by polarographic electrode); format: biochemical
Protocol: Since DBH is a major enzyme in the synthetic pathway of norepinephrine (NE), the presence of a DBH inhibitor would act to decrease the amount of NE produced, and thereby have an antihypertensive effect. The DBH inhibitory properties of the compounds of this invention can readily be determined by standard and well-known procedures. […] The test compound is added at the desired concentration, and the system is incubated. Aliquots are taken at different time intervals and DBH activity is measured using tyramine as the substrate. The reaction is followed by measuring oxygen uptake using a polarographic electrode and an oxygen monitor by the method of S. May, et al., J. Biol. Chem., 256, 2258 (1981).

1,3-Dithiolane-2-ethanamine [Example 2]
Ki [1]: 11 µM

NC/C=C1/CCCS1 [Example 6]
in vivo antihypertensive activity [2]: active as an in vivo antihypertensive agent

NCC=C1SCCS1 [compound 1]
activity in the time-dependent DBH assay [3]: most active compound of the compounds tested
